Data from ChEMBL document CHEMBL6178022, “Discovery and Optimization of Potent PROTAC Degraders of Phosphoinositide 3-Kinase with Significant in Vivo Anticancer Efficacy” (J Med Chem, 2025).

Key:
[1] = tested on: AGS; test: Antiproliferative activity against human AGS cells assessed as inhibition of cell viability incubated for 3 days by MTT/CTG assay; details: 72 h
[2] = tested on: MDA-MB-453; test: Antiproliferative activity against human MDA-MB-453 cells assessed as inhibition of cell viability incubated for 3 days by MTT/CTG assay; details: MDA-MB-453, 72 h
[3] = tested on: Pfeiffer; test: Antiproliferative activity against human Pfeiffer cells assessed as inhibition of cell viability incubated for 3 days by MTT/CTG assay; details: 72 h
[4] = tested on: LNCaP; test: Antiproliferative activity against human LNCaP cells assessed as inhibition of cell viability incubated for 3 days by MTT/CTG assay; details: 72 h
[5] = tested on: T47D; test: Antiproliferative activity against human T47D cells assessed as inhibition of cell viability incubated for 3 days by MTT/CTG assay; details: 72 h
[6] = tested on: HGC-27; test: Antiproliferative activity against human HGC-27 cells assessed as inhibition of cell viability incubated for 3 days by MTT/CTG assay; details: HGC-27, 72 h
[7] = tested on: PC-3; test: Antiproliferative activity against human PC-3 cells assessed as inhibition of cell viability incubated for 3 days by MTT/CTG assay; details: PC-3, 72 h
[8] = Toxicity in C57BL/6J mouse assessed as body weight change at 100 mg/kg, ip treated daily for 7 days; type: organism-based; details: in vivo, 168 h, time 7 day
[9] = Metabolic stability in dog plasma at 2 uM measured up to 60 mins by LC-MS/MS analysis; type: ADME, cell-free, Canis lupus familiaris; details: 1 h
[10] = Drug metabolism in human liver microsomes at 2 uM measured up to 60 mins in absence of NADPH by LC-MS/MS analysis; type: ADME, Microsome; details: 1 h
[11] = Drug metabolism in rat liver microsomes at 2 uM measured up to 60 mins in absence of NADPH by LC-MS/MS analysis; type: ADME, Microsome; details: 1 h
[12] = Metabolic stability in mouse plasma at 2 uM measured up to 60 mins by LC-MS/MS analysis; type: ADME, cell-free; details: 1 h
[13] = Terminal half life in ICR mouse at 3 mg/kg, iv measured for 24 hrs by LC-MS/MS analysis; type: ADME, organism-based; details: in vivo, read-out: beta t1/2 (converted)
[14] = tested on: HGC-27; test: Antitumor activity against human HGC-27 cells xenografted in male BALB/c nude mouse model at 60 mg/kg, ip qd treated for 14 days consecutively relative to control; type: functional; details: HGC-27, 336 h, time 14 day, read-out: TGI
[15] = Drug metabolism in dog liver microsomes at 2 uM measured up to 60 mins in absence of NADPH by LC-MS/MS analysis; type: ADME, Canis lupus familiaris, Microsome; details: 1 h
[16] = target: Phosphatidylinositol 4,5-bisphosphate 3-kinase catalytic subunit gamma isoform (Homo sapiens, UniProt P48736); test: Inhibition of PI3K-gamma (unknown origin) by kinase selectivity profiling analysis
[17] = Toxicity in male BALB/c nude mouse model xenografted with human DOHH-2 cells assessed as drug tolerance at 30 mg/kg, ip qd treated for 21 days consecutively; type: organism-based; details: in vivo, 504 h, time 21 day
[18] = MRT (0 to t) in ICR mouse at 3 mg/kg, iv measured for 24 hrs by LC-MS/MS analysis; type: ADME, organism-based; details: in vivo
[19] = Metabolic stability in rat liver microsomes assessed as half life at 2 uM measured up to 60 mins by LC-MS/MS analysis; type: ADME, Microsome
[20] = Oral bioavailability in Sprague-Dawley rat at 15 mg/kg measured for 24 hrs by LC-MS/MS analysis; type: ADME, organism-based; details: in vivo
[21] = tested on: HGC-27; test: Antitumor activity against human HGC-27 cells xenografted in male BALB/c nude mouse model at 30 mg/kg, ip qd treated for 14 days consecutively relative to control; type: functional; details: HGC-27, 336 h, time 14 day, read-out: TGI
[22] = Terminal half life in ICR mouse at 30 mg/kg, ip measured for 24 hrs by LC-MS/MS analysis; type: ADME, organism-based; details: in vivo, read-out: beta t1/2
[23] = tested on: T47D; test: Induction of cell cycle arrest in human T47D cells assessed as accumulation at G2/M phase incubated for 24 hrs by PI staining based flow cytometry; type: functional; details: dose 0.1-10 µM
[24] = Terminal half life in Sprague-Dawley rat at 1.5 mg/kg, iv measured for 24 hrs by LC-MS/MS analysis; type: ADME, organism-based; details: in vivo, read-out: beta t1/2 (converted)
[25] = AUC (0 to t) in ICR mouse at 30 mg/kg, ip measured for 24 hrs by LC-MS/MS analysis; type: ADME, organism-based; details: in vivo
[26] = Toxicity in C57BL/6J mouse administered intraperitoneally for 7 days; details: in vivo, route ip, time 7 day
[27] = Drug metabolism in monkey liver microsomes at 2 uM measured up to 60 mins in absence of NADPH by LC-MS/MS analysis; type: ADME, Macaca mulatta, Microsome; details: rhesus monkey, 1 h
[28] = MRT (0 to t) in Sprague-Dawley rat at 15 mg/kg, ip measured for 24 hrs by LC-MS/MS analysis; type: ADME, organism-based; details: in vivo
[29] = Metabolic stability in rat plasma at 2 uM measured up to 60 mins by LC-MS/MS analysis; type: ADME, cell-free; details: 1 h
[30] = target: Voltage-gated inwardly rectifying potassium channel KCNH2 (Homo sapiens, UniProt Q12809); test: Inhibition of hERG stably expressed in HEK293 cells by whole-cell patch-clamp technique; type: toxicity, cell-based
[31] = Metabolic stability in mouse liver microsomes assessed as half life at 2 uM measured up to 60 mins by LC-MS/MS analysis; type: ADME, Microsome
[32] = Oral bioavailability in ICR mouse at 30 mg/kg measured for 24 hrs by LC-MS/MS analysis; type: ADME, organism-based; details: in vivo
[33] = Metabolic stability in monkey liver microsomes assessed as half life at 2 uM measured up to 60 mins by LC-MS/MS analysis; type: ADME, Macaca mulatta, Microsome; details: rhesus monkey
[34] = Toxicity in male BALB/c nude mouse model xenografted with human HGC-27 cells assessed as drug tolerance at 30 to 60 mg/kg, ip qd treated for 14 days consecutively; type: organism-based; details: in vivo, 336 h, dose 30-60 mg/kg, time 14 day
[35] = Metabolic stability in human liver microsomes assessed as half life at 2 uM measured up to 60 mins by LC-MS/MS analysis; type: ADME, Microsome
[36] = Cmax in Sprague-Dawley rat at 15 mg/kg, ip measured for 24 hrs by LC-MS/MS analysis; type: ADME, organism-based; details: in vivo
[37] = Metabolic stability in monkey plasma at 2 uM measured up to 60 mins by LC-MS/MS analysis; type: ADME, cell-free, Macaca mulatta; details: rhesus monkey, 1 h
[38] = Toxicity in male BALB/c nude mouse model xenografted with human DOHH-2 cells assessed as body weight loss at 30 mg/kg, ip qd treated for 21 days consecutively; type: organism-based; details: in vivo, 504 h, time 21 day
[39] = AUC (0 to t) in Sprague-Dawley rat at 1.5 mg/kg, iv measured for 24 hrs by LC-MS/MS analysis; type: ADME, organism-based; details: in vivo
[40] = Metabolic stability in human plasma at 2 uM measured up to 60 mins by LC-MS/MS analysis; type: ADME, cell-free; details: 1 h
[41] = Drug metabolism in mouse liver microsomes at 2 uM measured up to 60 mins in absence of NADPH by LC-MS/MS analysis; type: ADME, Microsome; details: 1 h
[42] = Cytotoxicity against human AC16 [Human hybrid] cells; type: toxicity, cell-based
[43] = Cmax in ICR mouse at 30 mg/kg, ip measured for 24 hrs by LC-MS/MS analysis; type: ADME, organism-based; details: in vivo
[44] = Metabolic stability in dog liver microsomes assessed as half life at 2 uM measured up to 60 mins by LC-MS/MS analysis; type: ADME, Canis lupus familiaris, Microsome
[45] = MRT (0 to t) in Sprague-Dawley rat at 1.5 mg/kg, iv measured for 24 hrs by LC-MS/MS analysis; type: ADME, organism-based; details: in vivo
[46] = target: hERG (KCNH2) (Homo sapiens, UniProt Q12809); test: Inhibition of hERG stably expressed in HEK293 cells at 10 uM by whole-cell patch-clamp technique relative to control; type: toxicity, cell-based; details: HEK293 cells stably expressing hERG
[47] = AUC (0 to t) in Sprague-Dawley rat at 15 mg/kg, ip measured for 24 hrs by LC-MS/MS analysis; type: ADME, organism-based; details: in vivo
[48] = tested on: DOHH-2; test: Antitumor activity against human DOHH-2 cells xenografted in male BALB/c nude mouse model at 30 mg/kg, ip qd treated for 21 days consecutively relative to control; type: functional; details: DOHH-2, 504 h, time 21 day, read-out: TGI
[49] = Terminal half life in Sprague-Dawley rat at 15 mg/kg, ip measured for 24 hrs by LC-MS/MS analysis; type: ADME, organism-based; details: in vivo, read-out: beta t1/2 (converted)
[50] = Toxicity in male BALB/c nude mouse model xenografted with human HGC-27 cells assessed as body weight change at 30 to 60 mg/kg, ip qd treated for 14 days consecutively; type: organism-based; details: in vivo, 336 h, dose 30-60 mg/kg, time 14 day
[51] = AUC (0 to t) in ICR mouse at 3 mg/kg, iv measured for 24 hrs by LC-MS/MS analysis; type: ADME, organism-based; details: in vivo
[52] = tested on: T47D; test: Effect on PI3K-alpha mRNA level in human T47D cells at 1 uM incubated for 24 hrs by RT-PCR analysis; type: functional, cell-based
[53] = tested on: Mus musculus; test: In vivo PROTAC activity at CRBN/PI3K-alpha in human HGC-27 cells xenografted in male BALB/c nude mouse model assessed as PI3K-alpha degradation administered intraperitoneally once daily for 14 days consecutively; type: functional, organism-based; details: dose 30-60 mg/kg, route ip, time 14.0 day
[54] = MRT (0 to t) in ICR mouse at 30 mg/kg, ip measured for 24 hrs by LC-MS/MS analysis; type: ADME, organism-based; details: in vivo

Sequence of Voltage-gated inwardly rectifying potassium channel KCNH2 (Q12809 whole entry): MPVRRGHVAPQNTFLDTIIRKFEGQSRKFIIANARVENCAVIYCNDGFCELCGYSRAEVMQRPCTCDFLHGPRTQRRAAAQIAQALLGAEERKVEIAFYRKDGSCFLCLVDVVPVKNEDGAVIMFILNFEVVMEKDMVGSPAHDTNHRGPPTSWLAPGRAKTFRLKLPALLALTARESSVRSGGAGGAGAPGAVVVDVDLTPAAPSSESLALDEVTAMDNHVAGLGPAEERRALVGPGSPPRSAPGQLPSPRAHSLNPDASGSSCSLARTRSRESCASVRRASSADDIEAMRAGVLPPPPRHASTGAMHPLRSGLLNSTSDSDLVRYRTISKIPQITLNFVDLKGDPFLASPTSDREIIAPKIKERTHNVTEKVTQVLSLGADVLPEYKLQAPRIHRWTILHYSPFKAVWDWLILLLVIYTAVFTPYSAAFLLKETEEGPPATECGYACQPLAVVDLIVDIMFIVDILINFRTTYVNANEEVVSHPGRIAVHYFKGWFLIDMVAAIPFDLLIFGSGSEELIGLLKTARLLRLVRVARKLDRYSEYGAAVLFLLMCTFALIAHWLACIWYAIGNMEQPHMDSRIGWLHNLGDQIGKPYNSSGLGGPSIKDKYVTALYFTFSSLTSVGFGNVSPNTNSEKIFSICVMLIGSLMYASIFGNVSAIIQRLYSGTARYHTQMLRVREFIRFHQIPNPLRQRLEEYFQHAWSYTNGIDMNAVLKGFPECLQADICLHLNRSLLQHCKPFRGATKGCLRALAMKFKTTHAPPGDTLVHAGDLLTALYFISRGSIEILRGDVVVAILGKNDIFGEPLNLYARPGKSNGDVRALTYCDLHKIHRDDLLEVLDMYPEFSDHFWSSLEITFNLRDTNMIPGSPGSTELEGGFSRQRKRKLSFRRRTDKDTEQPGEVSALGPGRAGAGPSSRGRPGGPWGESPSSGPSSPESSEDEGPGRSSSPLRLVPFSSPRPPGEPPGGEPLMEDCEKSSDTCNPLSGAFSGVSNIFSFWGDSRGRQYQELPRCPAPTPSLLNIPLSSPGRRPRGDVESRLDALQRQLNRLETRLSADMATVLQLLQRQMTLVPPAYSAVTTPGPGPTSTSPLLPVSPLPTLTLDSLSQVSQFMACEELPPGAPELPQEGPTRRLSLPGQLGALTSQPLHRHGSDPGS
Sequence of hERG (KCNH2) (Q12809 whole entry): as above
Sequence of Phosphatidylinositol 4,5-bisphosphate 3-kinase catalytic subunit gamma isoform (P48736 whole entry, canonical isoform): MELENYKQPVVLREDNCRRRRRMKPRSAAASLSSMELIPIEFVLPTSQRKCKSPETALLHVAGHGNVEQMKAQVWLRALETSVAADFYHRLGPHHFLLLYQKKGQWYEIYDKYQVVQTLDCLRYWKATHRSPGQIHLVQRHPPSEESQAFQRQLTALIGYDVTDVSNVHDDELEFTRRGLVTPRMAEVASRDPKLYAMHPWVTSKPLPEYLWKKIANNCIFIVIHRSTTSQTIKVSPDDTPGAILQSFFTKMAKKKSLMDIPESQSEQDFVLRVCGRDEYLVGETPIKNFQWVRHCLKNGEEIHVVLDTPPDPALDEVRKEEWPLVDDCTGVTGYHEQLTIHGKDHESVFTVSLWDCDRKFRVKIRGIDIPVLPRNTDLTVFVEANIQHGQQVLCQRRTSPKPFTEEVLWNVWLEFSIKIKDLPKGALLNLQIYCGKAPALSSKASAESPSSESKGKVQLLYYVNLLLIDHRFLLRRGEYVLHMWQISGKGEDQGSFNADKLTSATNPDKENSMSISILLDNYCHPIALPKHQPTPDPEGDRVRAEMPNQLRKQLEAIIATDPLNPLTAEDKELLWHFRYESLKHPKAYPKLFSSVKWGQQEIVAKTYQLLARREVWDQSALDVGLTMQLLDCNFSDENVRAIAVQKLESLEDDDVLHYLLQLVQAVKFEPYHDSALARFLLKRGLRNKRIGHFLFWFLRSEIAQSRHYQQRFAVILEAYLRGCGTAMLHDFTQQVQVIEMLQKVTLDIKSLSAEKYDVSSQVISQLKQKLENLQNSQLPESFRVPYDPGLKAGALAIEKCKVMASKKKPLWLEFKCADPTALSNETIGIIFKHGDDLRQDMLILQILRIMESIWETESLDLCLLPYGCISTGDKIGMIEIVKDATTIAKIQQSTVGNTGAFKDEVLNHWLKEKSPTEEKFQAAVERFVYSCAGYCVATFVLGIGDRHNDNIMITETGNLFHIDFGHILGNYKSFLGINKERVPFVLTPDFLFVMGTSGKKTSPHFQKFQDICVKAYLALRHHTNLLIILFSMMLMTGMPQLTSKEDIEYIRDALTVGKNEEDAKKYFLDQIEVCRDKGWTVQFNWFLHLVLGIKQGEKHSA

Structure (SMILES): Cc1nc(NC(=O)N2CCC[C@H]2C(N)=O)sc1-c1ccnc(C(C)(C)C(F)(F)F)c1 [ALPELISIB]
- IC50 [1]: 520 nM
- IC50 [2]: 770 nM
- IC50 [3]: > 50000 nM
- IC50 [4]: 15800 nM
- IC50 [5]: 360 nM
- IC50 [6]: 1920 nM
- IC50 [7]: 13200 nM

Structure (SMILES): COc1ncc(-c2cc(OCCCCCCCCCCCCNc3cccc4c3C(=O)N(C3CCC(=O)NC3=O)C4=O)c3ncnc(C)c3c2)cc1NS(=O)(=O)c1ccc(F)cc1F (stereo unspecified)
- IC50 [1]: 370 nM
- Activity [8]: Non-toxic
- Stability [9]: Stable
- Drug metabolism [10]: metabolite_notdetected
- Drug metabolism [11]: metabolite_notdetected
- Stability [12]: Stable
- half-life [13]: 7.88 h
- inhibition in vivo at 60 mg/kg [14]: 56.8%
- IC50 [2]: 1640 nM
- Drug metabolism [15]: metabolite_notdetected
- IC50 [16]: > 10000 nM
- Activity [17]: Non-toxic
- MRT last at 24 h [18]: 6.69 h
- half-life at 2 µM [19]: 0.762 h
- bioavailability [20]: 46.4%
- inhibition in vivo at 30 mg/kg [21]: 38.3%
- IC50 [3]: 690 nM
- IC50 [4]: 3380 nM
- half-life [22]: > 24 h
- Activity [23]: Dose-dependent-effect
- half-life [24]: 2.11 h
- AUC(0-t) at 24 h [25]: 26300 ng·h/mL
- MTD at 168 h [26]: > 100 mg/kg
- Drug metabolism [27]: metabolite_notdetected
- MRT last at 24 h [28]: 6.05 h
- Stability [29]: Stable
- IC50 [30]: > 10000 nM
- half-life at 2 µM [31]: 0.377 h
- bioavailability [32]: 20%
- half-life at 2 µM [33]: 0.542 h
- Activity [34]: Non-toxic
- half-life at 2 µM [35]: 0.578 h
- Cmax [36]: 555 ng/mL
- Stability [37]: Stable
- Activity [38]: Non-toxic
- AUC(0-t) at 24 h [39]: 1120 ng·h/mL
- Stability [40]: Stable
- Drug metabolism [41]: metabolite_notdetected
- IC50 [42]: > 50000 nM
- IC50 [5]: 350 nM
- IC50 [6]: 1450 nM
- Cmax [43]: 1420 ng/mL
- half-life at 2 µM [44]: 1.12 h
- MRT last at 24 h [45]: 1.98 h
- inhibition at 10 µM [46]: 10.2%
- AUC(0-t) at 24 h [47]: 5490 ng·h/mL
- inhibition in vivo at 30 mg/kg [48]: 61.8%
- IC50 [7]: 1480 nM
- half-life [49]: 4.28 h
- Activity [50]: Non-toxic
- AUC(0-t) at 24 h [51]: 12700 ng·h/mL
- Activity [52]: No effect
- Activity [53]: Dose-dependent-effect
- MRT last at 24 h [54]: 10.7 h
